Activity calls are given as the source filed them. No rule for the calls is given here.
target: Acetylcholine receptor subunit alpha (Tetronarce californica) + Acetylcholine receptor subunit beta (Tetronarce californica) + Acetylcholine receptor subunit gamma (Tetronarce californica) + Acetylcholine receptor subunit delta (Tetronarce californica) (UniProt P02710+P02712+P02714+P02718); experiment: muscle-type nicotinic receptor radioligand displacement – biochemical, Torpedo californica electric organ membranes, [125I]alpha-bungarotoxin (AID 743370); details: [125I]alpha-bungarotoxin displacement
Sequence (P02710 whole entry, looked up): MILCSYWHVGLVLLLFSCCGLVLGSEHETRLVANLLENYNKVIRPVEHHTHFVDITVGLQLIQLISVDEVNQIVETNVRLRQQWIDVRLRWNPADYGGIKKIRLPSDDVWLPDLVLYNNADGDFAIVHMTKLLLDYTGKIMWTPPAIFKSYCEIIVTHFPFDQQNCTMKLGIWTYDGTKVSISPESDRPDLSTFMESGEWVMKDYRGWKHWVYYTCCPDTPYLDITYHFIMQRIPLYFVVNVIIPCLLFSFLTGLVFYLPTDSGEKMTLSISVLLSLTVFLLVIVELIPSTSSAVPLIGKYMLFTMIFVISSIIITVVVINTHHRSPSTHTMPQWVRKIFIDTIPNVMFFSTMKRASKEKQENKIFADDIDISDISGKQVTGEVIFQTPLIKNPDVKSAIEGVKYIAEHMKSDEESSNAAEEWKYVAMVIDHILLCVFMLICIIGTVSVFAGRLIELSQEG
Sequence (P02712 whole entry, looked up): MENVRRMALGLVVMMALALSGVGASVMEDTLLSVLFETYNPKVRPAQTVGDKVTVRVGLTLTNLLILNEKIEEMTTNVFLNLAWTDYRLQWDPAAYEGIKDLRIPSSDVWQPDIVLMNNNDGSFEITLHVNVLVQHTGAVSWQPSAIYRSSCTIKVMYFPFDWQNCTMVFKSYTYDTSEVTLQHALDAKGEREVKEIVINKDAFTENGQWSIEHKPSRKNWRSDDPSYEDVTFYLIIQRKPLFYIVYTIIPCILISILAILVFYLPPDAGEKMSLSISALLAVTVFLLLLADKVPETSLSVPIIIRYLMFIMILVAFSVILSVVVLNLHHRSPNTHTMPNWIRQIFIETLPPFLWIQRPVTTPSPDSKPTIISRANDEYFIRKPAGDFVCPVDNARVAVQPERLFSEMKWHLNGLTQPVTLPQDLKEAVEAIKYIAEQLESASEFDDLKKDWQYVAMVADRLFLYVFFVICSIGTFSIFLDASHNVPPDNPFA
Sequence (P02714 whole entry, looked up): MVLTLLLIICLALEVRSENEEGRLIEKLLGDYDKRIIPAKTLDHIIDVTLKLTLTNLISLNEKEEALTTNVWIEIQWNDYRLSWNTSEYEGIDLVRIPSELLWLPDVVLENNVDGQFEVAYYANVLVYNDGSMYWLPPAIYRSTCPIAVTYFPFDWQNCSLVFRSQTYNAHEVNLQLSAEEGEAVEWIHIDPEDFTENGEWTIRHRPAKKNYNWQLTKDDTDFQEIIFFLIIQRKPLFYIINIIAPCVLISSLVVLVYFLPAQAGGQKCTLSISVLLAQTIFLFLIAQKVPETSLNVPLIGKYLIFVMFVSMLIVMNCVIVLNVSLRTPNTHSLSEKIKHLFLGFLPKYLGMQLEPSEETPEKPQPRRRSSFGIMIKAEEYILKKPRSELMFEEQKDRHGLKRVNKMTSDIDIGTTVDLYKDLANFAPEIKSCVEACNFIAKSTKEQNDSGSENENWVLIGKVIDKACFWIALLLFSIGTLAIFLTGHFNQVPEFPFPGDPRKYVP
Sequence (P02718 whole entry, looked up): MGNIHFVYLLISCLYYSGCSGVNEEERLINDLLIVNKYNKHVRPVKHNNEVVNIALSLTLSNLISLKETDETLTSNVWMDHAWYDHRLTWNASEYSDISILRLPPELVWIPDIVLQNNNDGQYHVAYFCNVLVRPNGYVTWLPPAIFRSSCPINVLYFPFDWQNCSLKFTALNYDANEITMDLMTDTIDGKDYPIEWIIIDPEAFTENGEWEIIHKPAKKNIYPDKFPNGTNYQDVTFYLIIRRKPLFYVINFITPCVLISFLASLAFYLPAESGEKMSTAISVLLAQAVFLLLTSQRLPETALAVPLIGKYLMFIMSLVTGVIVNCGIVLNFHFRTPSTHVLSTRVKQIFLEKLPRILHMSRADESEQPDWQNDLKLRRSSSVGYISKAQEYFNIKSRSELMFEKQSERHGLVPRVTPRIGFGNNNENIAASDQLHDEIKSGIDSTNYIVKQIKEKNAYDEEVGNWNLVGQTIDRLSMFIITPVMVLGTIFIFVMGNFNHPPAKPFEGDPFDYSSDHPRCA

First: COc1cc(CCN)c2c(c1OC)SSSSS2
Second: COc1cc2c3c(ccnc3c1OC)NC=C2
The Ki of the first is 3.4-fold lower: 10 µM for the first, 34 µM for the second. The first binds more tightly here.

Compared with `COn1c(Br)c2c3c(cccc31)[C@H]1C[C@@H](C)CN(C)[C@@H]1C2`, `CC/C=C/[C@@H]1CC[C@]2(C[C@H]3CC[C@H]4[C@@H](C(=O)OC(CC)CCCCCCCCCCCCC[C@@H]5O[C@](O)(CCN)[C@H](O)N(CCCN)C5=O)[C@@]5(CCC[C@H](C)O5)NC(=[N+]34)N2)O1` (stereo partly specified) is 5.5-fold lower in Ki: 44 µM for the first, 8 µM for the second.

`C[C@@H](N)[C@H](O)CCCCCCCC(=O)CCCCCCCCCCCCCC[C@@H](O[C@@H]1O[C@H](CO)[C@H](O)[C@H](O)[C@H]1O)[C@@H](C)N` showed a Ki of 22 µM.

With `NC1=N/C(=C2/CCNC(=O)c3[nH]ccc32)C(=O)N1` the Ki was “inactive”.
